Laboratory results published in ChEMBL document CHEMBL6083261, “Structure-guided design and photochemical synthesis of new carbamo(dithioperoxo)thioates with improved potencies to SARS-CoV-2 3CLpro” (Bioorg Med Chem, 2024).

Assays:
[1] = target: T1, Replicase polyprotein 1ab (Severe acute respiratory syndrome coronavirus 2, UniProt P0DTD1); assay: Inhibition of SARS-CoV-2 PL protease
[2] = target: T1, Replicase polyprotein 1ab; assay: (§1) Inhibition of SARS-CoV-2 N/C terminal 6his tagged 3CL protease extracted from Escherichia coli BL21(DE3) using CA-AVLQSGFR-Lys(Dnp)-Lys-NH2 as fluorescent substrate preincubated for 1 hr followed by substrate addition and measured after 20 mins by FRET analysis
[3] = target: T1, Replicase polyprotein 1ab; assay: Inhibition of SARS-CoV-2 RdRp
[4] = target: Replicase polyprotein 1ab (Severe acute respiratory syndrome coronavirus 2) (UniProt P0DTD1); assay: as §1, with “10 mins” for “1 hr”, “every 10 sec for 10” for “after 20”, “mins in presence of DTT” for “mins”, “analysis relative to control” for “analysis”; set-up: concentration or dose not given beside the values; settings: time 20.0 min
[5] = system: Vero C1008; assay: Cytotoxicity against African green monkey Vero E6 cells at 1 mM incubated for 24 hrs by CCK-8 method; assay type: toxicity, cell-based; settings: chlorocebus sabaeus, vero c1008, 24 h, 1000 µM
[6] = target: Replicase polyprotein 1ab (Severe acute respiratory syndrome coronavirus 2) (UniProt P0DTD1); assay: Inhibition of SARS-CoV-2 N/C terminal 6his tagged 3CL protease extracted from Escherichia coli BL21(DE3) using CA-AVLQSGFR-Lys(Dnp)-Lys-NH2 as fluorescent substrate preincubated for 1 hr followed by substrate addition and measured after 20 mins by FRET analysis relative to control; set-up: concentration or dose not given beside the values; settings: time 80.0 min

SMILES | IC50 [1] [µM] | IC50 [2] [µM] | IC50 [3] [µM] | inhibition [4] [%] | Activity [5] | inhibition [6] [%]
S=C(SSC(=S)N1CCOCC1)N1CCOCC1 | 0.39 | 1.22 | 53.6 | – | – | –
S=C(SSc1ccccc1)N1CCCC1 | 0.22 | 0.4 | 12 | – | – | –
COC(=O)C1CCCN1C(=S)SSc1ccccc1 (stereo not given) | 0.39 | 0.54 | 57.6 | – | – | –
Oc1ccc(SSC(=S)N2CCC(O)CC2)cc1 | 7.71 | 0.3 | 97.8 | 60 | Toxic | > 95
S=C(SSc1ccccc1)N1CCCCC1 | 2.5 | 0.64 | > 100 | – | – | –
OC1CCN(C(=S)SSc2ccccc2)CC1 | > 100 | 0.35 | > 100 | 60 | Toxic | > 95
COc1ccc(SSC(=S)N2CCC(O)CC2)cc1 | 0.15 | 0.23 | 8.52 | 60 | Toxic | > 95
S=C(SSC(=S)N1CCCC1)N1CCCC1 [BIS(PYRROLIDINYLTHIOCARBONYL)DISULFIDE] | 0.06 | 1.34 | 8.92 | – | – | –
OC1CCN(C(=S)SSc2ccc(C(F)(F)F)cc2)CC1 | 0.04 | 0.14 | 15.9 | 60 | Toxic | > 95
OC1CCN(C(=S)SSC(=S)N2CCC(O)CC2)CC1 | 0.58 | 0.92 | 83.1 | 60 | Toxic | –
S=C(SSc1ccccc1)N1CCOCC1 | 1.73 | 0.66 | > 100 | – | – | –
S=C(SSC(=S)N1CCCCC1)N1CCCCC1 [BIS(PIPERIDINYLTHIOCARBONYL)DISULFIDE] | 0.07 | 1.48 | 10.2 | – | – | –
O=[N+]([O-])c1ccc(SSC(=S)N2CCC(O)CC2)cc1 | 0.32 | 0.24 | 45.6 | 60 | Toxic | > 95
COC(=O)CCSSC(=S)N1CCC(O)CC1 | > 100 | 0.47 | > 100 | – | Toxic | > 95
OC1CCN(C(=S)SSCc2ccccc2)CC1 | 0.33 | 0.25 | 21.4 | 60 | – | > 95
OC1CCN(C(=S)SSc2ccc(F)cc2)CC1 | 0.1 | 0.19 | 9.77 | 60 | Toxic | > 95
CCN(CC)C(=S)SSc1ccccc1 | > 100 | 1070 | > 100 | – | – | –
